Here are results for twelve molecules from ChEMBL document CHEMBL1201862, “PubChem BioAssay data set” (2004).

Assay in all cases: NCI anticancer screen, dose series, 48 h
Assay [1] concerns CAKI-1.
The subject of assay [2] is HCT-116.
Assay [3] has as its system HCT-15.
Assay [4] has as its system HL-60.
Assay [5] deals with HOP-62.
The subject of assay [6] is KM-20L2.
Assay [7] concerns M14.
For assay [8], the system named is NCI-H522.
In assay [9] the test system is OVCAR-3.
Assay [10] has as its system SF-539.
The subject of assay [11] is SK-MEL-2.
The subject of assay [12] is SK-MEL-5.
Assay [13] relates to SN12C.
In assay [14] the test system is TK-10.
Assay [15] has as its system UO-31.
Assay [16] has as its system HOP-92.
For assay [17], the system named is SW-620.

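Each compound was tested at five concentrations against cells in 96-well plates for 48 hours. GI50 marks 50% less growth.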 Calls of active or inactive are those of the source. No stated cut-off is given here; in the data, active = GI50 up to about 1.1 µM and inactive = higher. Some results are limits rather than exact numbers.

Turning to `C[C@H](NC(=O)OC1C2C=CC(O)C1CC2)c1ccccc1` (stereo not given in full), the GI50 was > 100 µM (inactive) in assay [1]; > 100 µM (inactive) in assay [2]; 13.1 µM in [3]; > 100 µM (inactive) in [4]; > 100 µM (inactive) in [5]; 45.3 µM (inactive) in assay [6]. In addition, the GI50 in [7] was 31.1 µM (inactive); in [8], > 100 µM (inactive); in assay [9], > 100 µM (inactive); in [10], > 100 µM (inactive); in assay [11], > 100 µM (inactive); in assay [12], > 100 µM (inactive). Further, the GI50 in assay [13], in assay [14] and in assay [15] was > 100 µM (inactive) each time.
Consider `CC1OC(OCC2OC(Oc3c(-c4ccc(O)cc4)oc4cc(O)cc(O)c4c3=O)C(OC3OC(C)C(O)C(O)C3O)C(O)C2O)C(O)C(O)C1O` (stereo not given), for which the GI50 in [1] was > 100 µM (inactive); in assay [2], > 100 µM (inactive); in [3], above 42.3 µM; in assay [4] it was > 100 µM (inactive); in [5], > 100 µM (inactive); in assay [16], > 100 µM (inactive). Besides, the GI50 in assay [6], in assay [7], in assay [8], in [9], in assay [10] and in assay [11] was > 100 µM (inactive) throughout. Also, the GI50 was > 100 µM (inactive) in assay [12]; > 100 µM (inactive) in assay [13]; > 36.2 µM (inactive) in [17]; > 100 µM (inactive) in [14]; > 100 µM (inactive) in assay [15].
Turning to `CC(=O)N/C(=C\c1ccccc1/C=C(\NC(C)=O)c1nc2cc(C)c(C)cc2[nH]1)c1nc2cc(C)c(C)cc2[nH]1`, the GI50 in assay [1] was 11.5 µM (inactive); in [2], 5.48 µM (inactive); in [3] it was above 10 µM; in assay [5], 14.2 µM (inactive); in assay [16], 8.36 µM (inactive); in assay [6], 29.4 µM (inactive). For the same molecule, the GI50 in assay [7] is 9.84 µM (inactive); in assay [8] it was 1.73 µM (inactive); in assay [9], 3.73 µM (inactive); in assay [10], 19.7 µM (inactive); in assay [11], 22.1 µM (inactive); in [12] it was 17.1 µM (inactive). Further, the GI50 in assay [13] is 17.1 µM (inactive); in [17], 31.1 µM (inactive); in [14] it was 24.4 µM (inactive); in assay [15], 3.22 µM (inactive).
As to `CCC(=O)O[C@@H]1C2C(OC(C)=O)C34COC(C)([C@@H]3C3C(C[C@]3(C)OC(C)=O)[C@@H](OC(=O)c3ccccc3)C4=O)[C@H](OC(C)=O)[C@@]2(OC(C)=O)C[C@@H]1C` (stereo not given in full), the GI50 in assay [1] was > 100 µM (inactive); in assay [2] it was 30.7 µM (inactive); in [3] it was 16 µM; in assay [4], 15.6 µM (inactive); in assay [5], 25.1 µM (inactive); in assay [16] it was 14.7 µM (inactive). The GI50 in [6] was > 100 µM (inactive); in assay [7] it was 33.9 µM (inactive); in assay [8], 37.1 µM (inactive); in assay [9] it was 21.6 µM (inactive); in [10] it was 14.9 µM (inactive); in assay [11] it was 79.4 µM (inactive). In addition, the GI50 in assay [12] was 13.5 µM (inactive); in [13] it was > 100 µM (inactive); in assay [17], 47.8 µM (inactive); in assay [14] it was 15.1 µM (inactive); in [15] it was 59.8 µM (inactive).
Take `CC(C)N(C(=O)C12C3C4C1C1C4(C#N)C3C12C#N)C(C)C` (stereo not given): the GI50 in assay [1] is > 100 µM (inactive); in assay [3], above 100 µM; in assay [5] it was > 100 µM (inactive); in [16], > 100 µM (inactive); in assay [6], > 100 µM (inactive); in assay [7], > 100 µM (inactive). The GI50 in assay [9], in assay [10], in [12], in [13], in [17] and in assay [14] was > 100 µM (inactive) throughout. Also, the GI50 in [15] was > 100 µM (inactive).
As to `O=C(O)CNS(=O)(=O)c1ccc(NC(=O)c2ccc([N+](=O)[O-])cc2)cc1`, the GI50 in assay [1] is > 100 µM (inactive); in assay [3], above 100 µM; in [4] it was > 100 µM (inactive); in assay [16] it was > 100 µM (inactive); in assay [6] it was > 100 µM (inactive); in assay [7] it was > 100 µM (inactive). The GI50 in assay [8] is 79.6 µM (inactive); in assay [9], > 100 µM (inactive); in assay [10], > 100 µM (inactive); in [11] it was > 100 µM (inactive); in assay [12], > 100 µM (inactive); in assay [13] it was > 100 µM (inactive). Besides, the GI50 in assay [17], in assay [14] and in assay [15] was > 100 µM (inactive) each time.
As to `CN1C(=O)CN2C(Cl)(Cl)C2(c2ccccc2F)c2cc([N+](=O)[O-])ccc21` (stereo not given), the GI50 is > 100 µM (inactive) in assay [1]; 31.7 µM (inactive) in [2]; 41.4 µM in assay [3]; > 100 µM (inactive) in assay [5]; 19.3 µM (inactive) in assay [16]; 26.7 µM (inactive) in [6]. The GI50 in assay [7] is > 100 µM (inactive); in [8], > 100 µM (inactive); in [9] it was > 100 µM (inactive); in [11], 38.2 µM (inactive); in [12] it was 26.8 µM (inactive); in [13] it was 25.2 µM (inactive). Besides, the GI50 is 69 µM (inactive) in assay [17], 60.7 µM (inactive) in assay [14] and 42.7 µM (inactive) in [15].
Take `COC[C@@H]1Cc2cc(OC)c3c(c2[C@H](c2ccc(OC)c(OC)c2)[C@H]1COC)OCO3` [HYPOPHYLLANTHIN]: the GI50 in assay [2] was 99.8 µM (inactive); in assay [3], above 100 µM; in assay [4] it was > 100 µM (inactive); in assay [16], 70 µM (inactive); in assay [6], > 100 µM (inactive); in [7], 50 µM (inactive). Besides, the GI50 in [8] is 55.7 µM (inactive); in [9], > 100 µM (inactive); in assay [10], 38.8 µM (inactive); in [11], > 100 µM (inactive); in assay [12] it was > 10 µM (inactive); in assay [13] it was > 100 µM (inactive). Moreover, the values for the GI50 in assay [17], in assay [14] and in assay [15] were > 100 µM (inactive), > 100 µM (inactive) and 70.1 µM (inactive), respectively.
`O=C(/C=C/C1C(=O)NC(=O)NC1=O)CC(=O)C(=O)Nc1cc(Cl)c(Cl)cc1Cl`: the GI50 is > 100 µM (inactive) in assay [1]; > 100 µM (inactive) in [2]; above 100 µM in assay [3]; > 100 µM (inactive) in assay [4]; > 100 µM (inactive) in assay [5]; > 100 µM (inactive) in assay [6]. For the same molecule, the GI50 in assay [7], in assay [8], in assay [9], in [10], in [11] and in [12] was > 100 µM (inactive) throughout. The GI50 in assay [13], in assay [17], in assay [14] and in assay [15] was > 100 µM (inactive) each time.
Take `COc1ccc(OC)c2c1CC(C(=O)O)(C(=O)O)CC2=O`: the GI50 in assay [1] is > 100 µM (inactive); in assay [2], > 100 µM (inactive); in assay [3], above 100 µM; in [4] it was > 100 µM (inactive); in assay [5], > 100 µM (inactive); in assay [16] it was > 100 µM (inactive). For the same molecule, the GI50 in [6], in [7], in [9], in assay [11], in [12] and in assay [13] was > 100 µM (inactive) each time. For the same molecule, the GI50 in assay [17], in assay [14] and in assay [15] was > 100 µM (inactive) each time.
In the case of `O=NN(CCCl)C(=O)N[C@H]1CC[C@@H](CC(=O)O)CC1`, the GI50 in assay [1] was > 100 µM (inactive); in assay [2] it was > 100 µM (inactive); in assay [3], above 100 µM; in [4], 38.3 µM (inactive); in assay [5] it was > 100 µM (inactive); in assay [16] it was > 84.9 µM (inactive). Also, the GI50 in assay [6] is > 100 µM (inactive); in [8], > 61.7 µM (inactive); in assay [9], > 100 µM (inactive); in assay [10], 45.7 µM (inactive); in assay [11], > 100 µM (inactive); in [12], > 100 µM (inactive). Further, the GI50 in [13], in assay [17] and in assay [15] was > 100 µM (inactive) throughout.
Regarding `C=CCC12CC(=O)CCC1CC(=O)C2` (stereo not given), the GI50 was > 100 µM (inactive) in assay [1]; > 100 µM (inactive) in assay [2]; above 100 µM in [3]; > 100 µM (inactive) in assay [4]; > 100 µM (inactive) in [5]; > 100 µM (inactive) in assay [6]. Further, the GI50 in assay [7], in assay [8], in assay [9], in assay [10], in assay [11] and in [12] was > 100 µM (inactive) each time. The GI50 in assay [13], in assay [17], in assay [14] and in [15] was > 100 µM (inactive) each time.
